{"source": "paper PMC11045757", "about": "“Group 3 medulloblastoma transcriptional networks collapse under domain specific EP300/CBP inhibition” (Nature Communications, 2024)", "system": "460 barcoded cancer cell lines", "experiment": "PRISM pooled barcoded cancer cell line growth screen, 10-point dose-response, 5 days, AUC", "assay_type": "cell-based", "set-up": "scale not given here", "from_the_text": "Several small molecule inhibitors of distinct protein domains of EP300/CBP are available, though the majority target the histone acetyltransferase domain (HAT) or bromodomain (BRD)[5],[10],[21],[22]. […] We used these tools to investigate the relative contribution of the EP300/CBP BRD or HAT domain to tumor cell growth (Fig. 1a). To do so, we performed 10-point, dose-response growth assays using mixed pools of 460 barcoded cancer cell lines, over five days of treatment in vitro[33],[34]. Growth was measured using an area-under-the-curve (AUC) approach (Supplementary Table 1, Supplementary Fig. 1a). […] Given potential differences in compound penetration and solubility, and to compare the relative cell line and tumor-specific effects of these two compounds in assays performed non-simultaneously, we performed a median normalization of each dataset (Supplementary Table 2).", "data": [{"smiles": "CNC(=O)Nc1ccc2c(c1)CCC21OC(=O)N(CC(=O)N(Cc2ccc(F)cc2)C(C)C(F)(F)F)C1=O", "note": "(stereo not shown) [Compound A485]", "values": [{"measurement": "AUC", "setting": "HCC1419, Breast Cancer", "result": 0.6161}, {"measurement": "AUC", "setting": "HCC1428, Breast Cancer", "result": 0.6381}, {"measurement": "AUC", "setting": "HCC1438, Lung Cancer", "result": 0.9014}, {"measurement": "AUC", "setting": "HCC1806, Breast Cancer", "result": 0.8548}, {"measurement": "AUC", "setting": "HCC1937, Breast Cancer", "result": 0.6971}, {"measurement": "AUC", "setting": "HCC2108, Lung Cancer", "result": 1}, {"measurement": "AUC", "setting": "HCC4006, Lung Cancer", "result": 0.7024}, {"measurement": "AUC", "setting": "HCT116, Colon/Colorectal Cancer", "result": 0.9205}, {"measurement": "AUC", "setting": "HDMYZ, Lymphoma", "result": 1}, {"measurement": "AUC", "setting": "HDQP1, Breast Cancer", "result": 0.7294}, {"measurement": "AUC", "setting": "HEC1B, Endometrial/Uterine Cancer", "result": 0.8662}, {"measurement": "AUC", "setting": "HEC6, Endometrial/Uterine Cancer", "result": 0.9741}, {"measurement": "AUC", "setting": "HEC50B, Endometrial/Uterine Cancer", "result": 1}, {"measurement": "AUC", "setting": "HEL9217, AML", "result": 0.6119}, {"measurement": "AUC", "setting": "HEL, AML", "result": 0.5914}, {"measurement": "AUC", "setting": "HEP3B217, Liver Cancer", "result": 0.7234}, {"measurement": "AUC", "setting": "HEPG2, Liver Cancer", "result": 0.8554}, {"measurement": "AUC", "setting": "HEYA8, Ovarian Cancer", "result": 0.9784}, {"measurement": "AUC", "setting": "HGC27, Gastric Cancer", "result": 0.9226}, {"measurement": "AUC", "setting": "HH, Lymphoma", "result": 0.7764}, {"measurement": "AUC", "setting": "HOS, Osteosarcoma", "result": 0.9517}, {"measurement": "AUC", "setting": "HPBALL, T-acute leukemia", "result": 0.8767}, {"measurement": "AUC", "setting": "HS294T, Melanoma", "result": 0.8326}, {"measurement": "AUC", "setting": "HS766T, Pancreatic Cancer", "result": 0.7648}, {"measurement": "AUC", "setting": "HSC2, Head and Neck Cancer", "result": 0.6896}, {"measurement": "AUC", "setting": "HSC3, Head and Neck Cancer", "result": 0.8176}, {"measurement": "AUC", "setting": "HT29, Colon/Colorectal Cancer", "result": 0.7629}, {"measurement": "AUC", "setting": "HT115, Colon/Colorectal Cancer", "result": 1}, {"measurement": "AUC", "setting": "HT144, Melanoma", "result": 0.8574}, {"measurement": "AUC", "setting": "HT1197, Bladder Cancer", "result": 0.9829}, {"measurement": "AUC", "setting": "HT, B-cell Lymphoma", "result": 0.6247}, {"measurement": "AUC", "setting": "HUCCT1, Bile Duct Cancer", "result": 0.8158}, {"measurement": "AUC", "setting": "HUG1N, Gastric Cancer", "result": 0.7448}, {"measurement": "AUC", "setting": "HUH1, Liver Cancer", "result": 0.7158}, {"measurement": "AUC", "setting": "HUH7, Liver Cancer", "result": 1}, {"measurement": "AUC", "setting": "HUH28, Bile Duct Cancer", "result": 0.821}, {"measurement": "AUC", "setting": "HUPT3, Pancreatic Cancer", "result": 0.6895}, {"measurement": "AUC", "setting": "HUPT4, Pancreatic Cancer", "result": 0.6862}, {"measurement": "AUC", "setting": "HUT78, Lymphoma", "result": 0.9441}, {"measurement": "AUC", "setting": "IALM, Lung Cancer", "result": 0.6559}, {"measurement": "AUC", "setting": "IGR37, Melanoma", "result": 0.6843}, {"measurement": "AUC", "setting": "IGROV1, Ovarian Cancer", "result": 0.8359}, {"measurement": "AUC", "setting": "IM95, Gastric Cancer", "result": 0.7117}, {"measurement": "AUC", "setting": "IPC298, Melanoma", "result": 0.8033}, {"measurement": "AUC", "setting": "ISHIKAWAHERAKLIO02ER, Endometrial/Uterine Cancer", "result": 0.9178}, {"measurement": "AUC", "setting": "ISTMES1, Lung Cancer", "result": 0.7574}, {"measurement": "AUC", "setting": "J82, Bladder Cancer", "result": 0.8707}, {"measurement": "AUC", "setting": "JEKO1, Lymphoma", "result": 0.7073}, {"measurement": "AUC", "setting": "JHH1, Liver Cancer", "result": 0.7161}, {"measurement": "AUC", "setting": "JHH4, Liver Cancer", "result": 0.849}, {"measurement": "AUC", "setting": "JHH5, Liver Cancer", "result": 0.5701}, {"measurement": "AUC", "setting": "JHH7, Liver Cancer", "result": 0.6779}, {"measurement": "AUC", "setting": "JHOC5, Ovarian Cancer", "result": 0.8969}, {"measurement": "AUC", "setting": "JHUEM7, Endometrial/Uterine Cancer", "result": 1}, {"measurement": "AUC", "setting": "JVM3, B-cell Leukemia", "result": 0.6743}, {"measurement": "AUC", "setting": "K029AX, Melanoma", "result": 0.7933}, {"measurement": "AUC", "setting": "KALS1, Glioblastoma", "result": 0.6866}, {"measurement": "AUC", "setting": "KARPAS620, Myeloma", "result": 0.9002}, {"measurement": "AUC", "setting": "KATOIII, Gastric Cancer", "result": 0.6951}, {"measurement": "AUC", "setting": "KCL22, CML", "result": 0.6275}, {"measurement": "AUC", "setting": "KD, Rhabdoid", "result": 0.6425}, {"measurement": "AUC", "setting": "KE37, T-acute leukemia", "result": 0.6716}, {"measurement": "AUC", "setting": "KE39, Gastric Cancer", "result": 0.7203}, {"measurement": "AUC", "setting": "KELLY, Neuroblastoma", "result": 0.5242}, {"measurement": "AUC", "setting": "KMBC2, Bladder Cancer", "result": 0.7261}, {"measurement": "AUC", "setting": "KMS11, Myeloma", "result": 0.7944}, {"measurement": "AUC", "setting": "KMS12BM, Myeloma", "result": 0.9973}, {"measurement": "AUC", "setting": "KMS18, Myeloma", "result": 0.7657}, {"measurement": "AUC", "setting": "KMS21BM, Myeloma", "result": 0.9338}, {"measurement": "AUC", "setting": "KMS28BM, Myeloma", "result": 0.817}, {"measurement": "AUC", "setting": "KMS34, Myeloma", "result": 0.8682}, {"measurement": "AUC", "setting": "KNS42, Glioblastoma", "result": 0.8304}, {"measurement": "AUC", "setting": "KNS60, Glioblastoma", "result": 0.7072}, {"measurement": "AUC", "setting": "KNS62, Lung Cancer", "result": 0.8264}, {"measurement": "AUC", "setting": "KP3, Pancreatic Cancer", "result": 0.9118}, {"measurement": "AUC", "setting": "KPNYN, Neuroblastoma", "result": 0.9338}, {"measurement": "AUC", "setting": "KS1, Glioma", "result": 0.6653}, {"measurement": "AUC", "setting": "KU1919, Bladder Cancer", "result": 0.6431}, {"measurement": "AUC", "setting": "KYM1, Rhabdoid", "result": 0.5622}, {"measurement": "AUC", "setting": "KYSE30, Esophageal Cancer", "result": 0.6256}, {"measurement": "AUC", "setting": "KYSE150, Esophageal Cancer", "result": 0.8681}, {"measurement": "AUC", "setting": "KYSE410, Esophageal Cancer", "result": 0.9564}, {"measurement": "AUC", "setting": "KYSE510, Esophageal Cancer", "result": 0.7247}, {"measurement": "AUC", "setting": "KYSE520, Esophageal Cancer", "result": 0.7055}, {"measurement": "AUC", "setting": "LAMA84, CML", "result": 0.6928}, {"measurement": "AUC", "setting": "LC1SQSF, Lung Cancer", "result": 0.7027}, {"measurement": "AUC", "setting": "LCLC103H, Lung Cancer", "result": 0.9264}, {"measurement": "AUC", "setting": "LI7, Liver Cancer", "result": 0.7203}, {"measurement": "AUC", "setting": "LK2, Lung Cancer", "result": 0.847}, {"measurement": "AUC", "setting": "LMSU, Gastric Cancer", "result": 0.7223}, {"measurement": "AUC", "setting": "LN18, Glioblastoma", "result": 0.7097}, {"measurement": "AUC", "setting": "LNCAPCLONEFGC, Prostate Cancer", "result": 0.6119}, {"measurement": "AUC", "setting": "LOUNH91, Lung Cancer", "result": 0.9465}, {"measurement": "AUC", "setting": "LOVO, Colon/Colorectal Cancer", "result": 0.7392}, {"measurement": "AUC", "setting": "LOXIMVI, Melanoma", "result": 0.8926}, {"measurement": "AUC", "setting": "LS180, Colon/Colorectal Cancer", "result": 0.7453}, {"measurement": "AUC", "setting": "LS411N, Colon/Colorectal Cancer", "result": 0.8492}, {"measurement": "AUC", "setting": "LS1034, Colon/Colorectal Cancer", "result": 0.4819}, {"measurement": "AUC", "setting": "LUDLU1, Lung Cancer", "result": 0.9399}, {"measurement": "AUC", "setting": "LXF289, Lung Cancer", "result": 0.6887}, {"measurement": "AUC", "setting": "M059K, Glioblastoma", "result": 0.8677}, {"measurement": "AUC", "setting": "MALME3M, Melanoma", "result": 0.6048}, {"measurement": "AUC", "setting": "MC116, B-cell Lymphoma", "result": 0.8821}, {"measurement": "AUC", "setting": "MCAS, Ovarian Cancer", "result": 0.7202}, {"measurement": "AUC", "setting": "MCF7, Breast Cancer", "result": 0.7287}, {"measurement": "AUC", "setting": "MDAMB175VII, Breast Cancer", "result": 0.9247}, {"measurement": "AUC", "setting": "MDAMB231, Breast Cancer", "result": 0.7703}, {"measurement": "AUC", "setting": "MDAMB361, Breast Cancer", "result": 0.7016}, {"measurement": "AUC", "setting": "MDAMB436, Breast Cancer", "result": 0.9544}, {"measurement": "AUC", "setting": "MDAMB453, Breast Cancer", "result": 0.5182}, {"measurement": "AUC", "setting": "MDAMB468, Breast Cancer", "result": 1}, {"measurement": "AUC", "setting": "MDST8, Colon/Colorectal Cancer", "result": 0.8223}, {"measurement": "AUC", "setting": "MELHO, Melanoma", "result": 0.7944}, {"measurement": "AUC", "setting": "MESSA, Uterine Sarcoma", "result": 0.7132}, {"measurement": "AUC", "setting": "MFE280, Endometrial/Uterine Cancer", "result": 0.7775}]}]}
